The text below walks through data of patent publication US20240299299A1, “COMPOSITIONS AND METHODS FOR INCREASING THE EFFICACY OF IMMUNOTHERAPIES AND VACCINES” (The Regents of the University of Michigan, priority 2021, published 2024).

Series [1] in a line: Encapsulation of DHB-based prodrugs in lipid-based formulation. It is filed as physicochemical. The settings on record: oleic acid, Tween 80, PBS emulsion. How it is done: The DHB-based prodrugs were synthesized by the Medicinal Chemistry Core in University of Michigan. To prepare the formulation, the prodrug #201 or #905 (4 mg) was added to the mixture of oleic acid (45 μL) and Tween 80 (25 μL) and incubated overnight to equilibrate and allow the prodrug to dissolve. Then an aqueous phase consisting of PBS buffer was added, and the formulation emulsified by ultrasonication with an ultrasonic processor.

Series [2] concerns immune checkpoint blockers (ICBs). To be noted: reported in literature; cited from earlier work.
Series [3] deals with OT-I CD8+ T cells. Put plainly: Tcf1+CD8+ differentiation of OT-I T cells with metabolites. It is filed as cell-based, mice. To be noted: day 6. How it is done:
FIG. 3: a) OT-I CD8+ T cells were cultured with different metabolites in vitro as indicated, b,c) shown are the frequency of the Tcf1^+CD8+ T cells and the representative flow cytometry plots on day 6. Data represent the mean±s.e.m. (n=5).
Splenocytes from OT-I mice were obtained aseptically. The cells were cultured in 96-well plates (1×10^5 cells per well). For Tcm differentiation study, cells were activated with SIINFEKL peptide (4×10^−9M) in the presence of various metabolites (arginine: 3 mM; 3-methylhistidine: 3 mM; N-acetylneuraminate: 100 μM; disodium sebacate: 100 μM; DHB: 100 μM; pantothenate: 100 μM; γ-aminobutyric acid: 100 μM; glycerol: 100 μM; AICAR: 100 μM, sodium ferulate: 100 μM) for 3 days. Then cells were washed three times with T-cell medium and further cultured with IL-2 (10 ng ml^−1; PeproTech) in the presence of metabolites for 5 days. The cells were then washed twice and re-activated with SIINFEKL peptide (10 μM) for 2 h. The suspension cells were collected, blocked with CD16/32 antibody and stained with the fixable viability dye eFluor 450, FITC-CD44 rat anti-human/mouse and PE-CD62L monoclonal antibody. To test if the central memory CD8+ T cells differentiation is dependent on dendritic cells, CD8 T cells isolated from the spleen in OT-I mice were incubated in the 96-well plate, which was precoated with anti-hamster IgG antibody. […] (1 μg mL^−1) and IL-2 (100 U mL^−1) were added into each well in the presence of 3-methylhistidine (3 mM), DHB (100 μM), or sodium ferulate (100 μM) for 2 days. Then cells were washed for three times to remove α-CD3/α-CD28 antibodies and further incubated with metabolites and IL-2 (10 ng ml^−1) for 5 days. Thereafter, cells were collected for central memory CD8^+ T cells analysis. For CD8^+ T cells survival study, cells were activated with antigen peptide as above, following with thoroughly washing, and incubation in presence of IL-2 for 2 days. […] Tcf1^+CD8^+, CD44^+CD62L^+CD8^+ and survival (stained with Annexin V-APC and PI) T cells were detected via flow cytometry.

For series [4], the system named is OT-I CD8+ T cells. Put plainly: In vitro central memory (Tcm) differentiation of OT-I CD8+ T cells activated with SIINFEKL peptide and IL-2 with metabolites. To be noted: day 8; metabolite-supplemented medium (arginine 3 mM, 3-methylhistidine 3 mM, DHB 100 μM, sodium ferulate 100 μM). It is filed as cell-based, mice. How it is done: FIG. 2: a) OT-I CD8+ T cells were cultured with different metabolites in vitro as indicated, b,c) shown is the frequency of CD44^+CD62L^+ Tcm CD8+ T cells on day 8. d) OT-I CD8+ T cells were activated with α-CD3/α-CD28 antibodies in presence of metabolites as indicated and shown is the Tcm CD8+ T cells on day 7. Data represent the mean±s.e.m. (n=5).
Splenocytes from OT-I mice were obtained aseptically. The cells were cultured in 96-well plates (1×10^5 cells per well). For Tcm differentiation study, cells were activated with SIINFEKL peptide (4×10^−9M) in the presence of various metabolites (arginine: 3 mM; 3-methylhistidine: 3 mM; N-acetylneuraminate: 100 μM; disodium sebacate: 100 μM; DHB: 100 μM; pantothenate: 100 μM; γ-aminobutyric acid: 100 μM; glycerol: 100 μM; AICAR: 100 μM, sodium ferulate: 100 μM) for 3 days. Then cells were washed three times with T-cell medium and further cultured with IL-2 (10 ng ml^−1; PeproTech) in the presence of metabolites for 5 days. The cells were then washed twice and re-activated with SIINFEKL peptide (10 μM) for 2 h. The suspension cells were collected, blocked with CD16/32 antibody and stained with the fixable viability dye eFluor 450, FITC-CD44 rat anti-human/mouse and PE-CD62L monoclonal antibody. To test if the central memory CD8+ T cells differentiation is dependent on dendritic cells, CD8 T cells isolated from the spleen in OT-I mice were incubated in the 96-well plate, which was precoated with anti-hamster IgG antibody. […] (1 μg mL^−1) and IL-2 (100 U mL^−1) were added into each well in the presence of 3-methylhistidine (3 mM), DHB (100 μM), or sodium ferulate (100 μM) for 2 days. Then cells were washed for three times to remove α-CD3/α-CD28 antibodies and further incubated with metabolites and IL-2 (10 ng ml^−1) for 5 days. Thereafter, cells were collected for central memory CD8^+ T cells analysis. For CD8^+ T cells survival study, cells were activated with antigen peptide as above, following with thoroughly washing, and incubation in presence of IL-2 for 2 days. Metabolites were added during this incubation (arginine: 3 mM, 1 mM; 3-methylhistidine: 3 mM, 1 mM, 500 μM, 100 μM; N-acetylneuraminate: 100 μM; disodium sebacate: 100 μM; DHB: 100 μM, 50 μM, 20 μM; pantothenate: 100 μM; γ-aminobutyric acid: 100 μM; glycerol: 100 μM; AICAR: 100 μM). Then cells were further incubated in absence of both IL-2 and metabolites for 36 h to induce the apoptosis/dead. For Tcf1^+CD8^+ differentiation study, cells were activated with antigen peptide as above, followed by thoroughly washing, and incubation with metabolites in presence of IL-2 for 3 days. […] Tcf1^+CD8^+, CD44^+CD62L^+CD8^+ and survival (stained with Annexin V-APC and PI) T cells were detected via flow cytometry.

`CCOC(=O)Oc1ccc(C(=O)OCC)cc1OC(=O)OCC` [Prodrug #905, ethyl 3,4-bis((ethoxycarbonyl)oxy)benzoate]: the “encapsulation in lipid-based dose forms” value in series [1] is listed as “can be successfully encapsulated”.

In the case of `CN(CC(=O)O)C(=N)N` [creatine], the “efficacy of immune checkpoint blockers (ICBs)” value in series [2] was “improve the efficacy of immune checkpoint blockers”.

Turning to `CSCC[C@H](N)C(=O)O` [methionine], the “efficacy of immune checkpoint blockers (ICBs)” value in series [2] is reported as “improve the efficacy of immune checkpoint blockers”.

As for `COc1cc(/C=C/C(=O)[O-])ccc1O.[Na+]` [sodium ferulate], the “frequency of Tcf1+CD8+ T cells” value in series [3] is on record as “increased the frequency”. Further, in series [4], the “differentiation of CD44+CD62L+ central memory CD8+ T cells” value was “significantly increased the differentiation”.
